Reference: patent US20250177478A1, “G ALPHA Q/11 INHIBITORS FOR USE AS AN ANALGESIC” (University of Florida Research Foundation, Incorporated, priority 2022, published 2025)
Positions of bridges follow the written chain, without caps; N, C: chain ends. Non-standard residues stand in square brackets, D forms with d. Residues, ends and D or L forms follow the SMILES beside them. Leu(3R-O(AcLeu(3R-OH))) = CC(=O)N[C@H](C(=O)O[C@H](C(C)C)[C@H](N)C(=O)O)[C@H](O)C(C)C; NMeT = CN[C@H](C(=O)O)[C@@H](C)O; dPhLac = O=C(O)[C@H](O)Cc1ccccc1; NMeA = CN[C@@H](C)C(=O)O; NMeDha = C=C(NC)C(=O)O

What was measured:
DRG nociceptors = assay: Whole cell patch-clamp recordings of acutely dissociated DRG nociceptors; format: cell-based, mouse
Description: F. Acutely dissociated dorsal root ganglion (DRG) Preparation. Male or female mice between 1 and 2 months of age were used for acute DRG isolations. […] Dissociated DRG cultures were prepared as previously described (Perner C et al. “Protocol for dissection and culture of murine dorsal root ganglia neurons to study neuropeptide release.” STAR Protoc (2021) 2:100333). Briefly, DRGs were dissected from 1- to 2-month-old mice in Hank's buffered salt solution (HBSS) and digested with Collagenase A and Dispase II for 25 min at 37° C., centrifuged at 200×g for 5 min, and washed with Dulbecco's modified Eagle's medium (DMEM) supplemented with 10% fetal bovine serum (FBS), glutamate, sodium pyruvate, 1% penicillin and 1% streptomycin. DRGs were then triturated in Neurobasal A medium supplemented with 10% FBS, 1% penicillin, 1% streptomycin, 1% GlutaMAX, 2% B27, […] nerve growth factor (NGF) and […] glial cell line-derived neurotrophic factor (GDNF). After plating on laminin-coated coverslips, cells were incubated at 37° C. overnight. Experiments were performed the day after dissection.
G. Whole cell patch-clamp recordings. Nociceptors were identified by physiological classification protocols (Petruska J C et al. “Subclassified acutely dissociated cells of rat DRG: histochemistry and patterns of capsaicin-, proton-, and ATP-activated currents.” J Neurophysiol (2000) 84:2365-2379) summarized in FIG. 10 and further by responsivity to morphine. Each experimental group consisted of 12-18 DRG recordings from three animals, 1-2 of which were female. Hyperpolarization-activated current (Ih) and kinetics of resulting transient currents were determined by stepping membrane potential from −60 to −110 mV for 500 ms in 10 mV increments (FIG. 10A). Outward currents were identified by first preconditioning membrane potential at −100 mV for 500 ms and then stepping from −60 to 40 mV in 20 mV increments for 200 ms (FIG. 10D). Inward current dynamics were determined by preconditioning at −80 mV and then stepping from −60 to 40 mV in 10 mV increments (FIG. 10G). A 6-s, 0- to 2-nA continuous ramp stimulation protocol was used to determine rheobase. Membrane capacitance (Cm), series resistance (Rs) and input resistance (Ri) were tested with a hyperpolarizing 10 mV pulse of 10 ms duration initially and at a 30 s interval throughout the recording period. Cells were recorded only if initial series resistance was ≤20 MΩ and excluded if Rs varied >20% while recording. Offline analysis identified clustering of a population n=30 with uniform morphine responsivity that was selected for further analysis, with basal parameters #SEM: Cm=27.31±4.72 pF, Ri=492±19.29 MQ, Ih=7.10±2.45 pA·pF−1, IA tau=8.39±0.41 ms and action potential (AP) tau=1.22±0.08 ms. K+ internal was used for all recordings, containing: 6 mM NaCl, 4 mM NaOH, 130 mM K-gluconate, 11 mM ethylene glycol-bis(β-aminoethyl ether)tetraacetic acid (EGTA), 1 mM CaCl2, 1 mM MgCl2, 10 mM N-(2-hydroxyethyl)piperazine-N′-(2-ethanesulphonic acid) (HEPES), 2 mM Na2ATP, and 0.2 mM Na2GTP 0.2, adjusted to pH 7.3-7.4 with HCl. External artificial CSF contained: 125 mM NaCl, 3 mM KCl, 1.2 mM KH2PO4, 1.2 mM MgSO4, 25 mM NaHCO3, 2 mM CaCl2), and 10 mM dextrose 10, adjusted to pH 7.3-7.4 with HCl.

C57BL/6 mice = system: C57BL/6 mice
Description: A. Experimental animals. C57BL/6 mice (6-8 weeks old) of both sexes were used. Mice were housed in groups on a 12-h light-dark cycle (6:00 am light cycle; 6:00 pm dark cycle) with food (Teklad Global 16% protein rodent diets; Envigo Inc., WI, USA) and water available ad libitum. Animal groups were compiled to ensure minimization of factors (e.g., weight, sex, and health). Mice were within 20-28 g in weight at start of all studies. All tested groups contained a control group and consisted of male and female mice. Males and females were tested on the same day but at different times so that they were not in the room at the same time. All the experiments were tested during the light cycle between 8:00 am and 3:00 pm to avoid any long-term disruption of sleep cycles. Mice were transferred to the behavioural testing room at least 45 min before the first test to acclimatize. Following behavioural evaluation, animals were killed by CO2 inhalation, followed by cervical dislocation and postmortem decapitation.
B. Drug treatments. […] The dose of YM-254890 for subcutaneous injection was taken from previous published studies. The dose of morphine selected for subcutaneous administration (2.5, 5 and 10 mg kg-1) is commonly used in mouse analgesia. For the combined administration of morphine and YM-254890 on thermal anti-nociception, YM-254890 was administered 10 min before the morphine. The latency of response was measured before injection of drugs (baseline latency response) and at different time intervals (post-treatment latency response) after drugs injection.
C. Intrathecal injections. Intrathecal (i.t.) administration was performed following the method described previously (Hylden J L et al. “Intrathecal morphine in mice: a new technique.” Eur J Pharmacol (1980) 67:313-316; Li D et al. “Direct Intrathecal Injection of Recombinant Adeno-associated Viruses in Adult Mice.” J Vis Exp (2019)) with slight modifications. All intrathecal injections were performed using a 25 μL Hamilton syringe with a 30-gauge needle. The injection volume was 5 μL for each mouse. […] Each solution was injected without injection cannulae. Intrathecal injections were made into the L5-L6 intervertebral space of unanesthetized mice. The flick of the tail was considered indicative of a successful i.t. administration.

[1] = co-application 100 nM YM + 1 μM morphine

## C=C1C(=O)N[C@@H](C)C(=O)N(C)[C@@H](C)C(=O)N[C@@H]([C@H](OC(=O)[C@@H](NC(C)=O)[C@H](O)C(C)C)C(C)C)C(=O)N(C)[C@@H]([C@@H](C)OC)C(=O)O[C@H](C)[C@H](NC(C)=O)C(=O)O[C@H](Cc2ccccc2)C(=O)N1C [YM-254890] (Ac-T[dPhLac][NMeDha]A[NMeA][Leu(3R-O(AcLeu(3R-OH)))][NMeT](Me); ester 1-C)
DRG nociceptors; 10 nM substance P followed by 10 nM SP and 100 nM YM
  inhibition of substance P induced excitation of DRG nociceptors: inhibit the effects of substance P
DRG nociceptors; 100 nM YM versus 1 μM morphine
  magnitude of decrease in excitability relative to morphine: smaller as compared with morphine
DRG nociceptors; YM-254890 or morphine alone
  rapidly inactivating A-type potassium currents (IA), voltage-step protocol 2: significantly inhibited IA
DRG nociceptors; bath application alone: 100 nM YM or 1 μM morphine
  AP amplitude, voltage-step protocol: moderately reduced AP amplitude
DRG nociceptors; bath application alone: 1 μM morphine or 100 nM YM
  excitability of DRG nociceptors (rheobase, 0-2 nA ramp stimulation): significant decrease in the excitability
DRG nociceptors; [1]
  action potential firing in 0-2 nA ramp protocol: prevented action potential firing throughout the 2-nA ramp protocol in all recordings
  evoked AP responses, voltage-step protocol: largely prevented evoked AP responses
DRG nociceptors; co-application 100 nM YM + 1 μM morphine, listed as YM
  evoked AP responses, voltage-step protocol: greatly inhibited evoked depolarization
DRG nociceptors; coadministration of YM-254890 and morphine
  rapidly inactivating A-type potassium currents (IA), voltage-step protocol 2: nearly eliminated IA
C57BL/6 mice; YM-254890 0.5 mg/kg s.c. 10 min before morphine 5 mg/kg s.c., 120 min
  effect on morphine locomotor-sensitizing effect, open-field test: completely suppressed these effects
C57BL/6 mice; YM-254890 0.5 mg/kg s.c. with morphine 5 mg/kg s.c., comparable with YM-254890 alone
  locomotion in open-field test: substantial decrease in locomotion
C57BL/6 mice; YM-254890 intrathecal 3.0 nmol, alone or in combination with morphine 2.5 mg/kg s.c., 120 min
  motor activity in open-field test after intrathecal delivery: no significant changes in motor activity
